Assay results as given in US20230174939A1, “NOVEL ANUCLEATED CELLS AS A SOURCE FOR TREATMENT OF PLATELET RICH PLASMA DEPENDENT DISORDERS” (Stellular Bio, Inc., priority 2020, published 2023).

Test: Body weight of rats on treatment in MIA osteoarthritis study
Assay type: in vivo, Sprague Dawley rats
Settings: oral, positive control; treatment stopped early in the study
Protocol: Groups of 20 male Sprague Dawley rats were given a 2 mg intra-articular injection of MIA into the right knee on day 0. On day 18, rats were treated with a single dose of plasmalyte buffer (negative control), PLCs, PLC lysate, or human PRP by intra-articular injection into the right knee.

SMILES: C[C@@H]1C[C@H]2[C@@H]3CCC4=CC(=O)C=C[C@]4(C)[C@@]3(F)[C@@H](O)C[C@]2(C)[C@@]1(O)C(=O)CO [dexamethasone]
- body weight on treatment: began to lose weight
